Experimental data: patent publication US7524930B2, “Tumor antigen” (Green Peptide Co., Ltd, priority 2003, dated 2009)

Experiments:
Format in all cases: cell-based, human
[1] = test system: peripheral blood mononuclear cells derived from a cancer patient; test: CTL induction by peptide from autologous PBMC of cancer patient, IFN-γ production on recognition of target cells (Example 5); settings: PBMC stimulated with 10 μM peptide
[2] = test system: peripheral blood mononuclear cells derived from a cancer patient; test: as above; settings: for Recognition of tumor cells by PBMC stimulated in vitro with peptide (IFN-γ production): SW620, CA9-22 and Panc-1 HLA-A2+ tumor cells, result in words; for IFN-γ production from peripheral blood mononuclear cells in recognition of target cells: PBMC stimulated with 10 μM peptide
Source text: Among the peptides that were able to enhance IFN-γ production from the OK-CTLp or OK-CTL clone in Example 4, those from P1 to P19 were examined for their ability to induce CTL from peripheral blood mononuclear cells derived from a cancer patient. The method for inducing CTL by a peptide was according to the well-known method (J. Exp. Med., 187:277-288, 1998; Cancer Res., 59:4056-4063, 1999.) Specifically, autologous peripheral blood mononuclear cells (PBMC) derived from a cancer patient, from whom OK-CTLp was obtained, were incubated together with the peptide (10 μM.) The cells were re-stimulated at day 10 and 14 after the start of culturing, using autologous PBMCs as an antigen presenting cell (APC) which were pulsed with 10 μM of the same peptide for 2 h and exposed to irradiation (30 gray.) At day 21 after the start of culturing, the cells were collected to test for surface phenotype. In addition, the cells were examined for the recognition of various target cells, using IFN-γ production measured by ELISA when they were cultured together with the target cells as an indicator. As a target cells, SW620 cell, CA9-22 cell, and Panc-1 cell, which are the HLA-A2^+ tumor cells, were used.

[3] = test system: OK-CTL clone; test: IFN-γ production by OK-CTL clones cultured with COS-7 cells cotransfected with cDNA clone and HLA-A0207 cDNA; design: unit not given here
Description: Since CTL activated by recognizing the tumor antigen is a population of cells recognizing plural kinds of tumor antigens, the above-described OK-CTLp was subjected to cloning by limiting dilution culture (0.3, 0.5, 1, 2, and 4 cells/well) to obtain an OK-CTL clone (J. Immunol., 163:4994-5004, 1999. ) These clones are those having CTL activity selected by culturing them together with COS-7 cells into which 100 ng/well of any one of the above-described seven cDNA clones and 100 ng/well of HLA-A0207 cDNA were cotransfected, or with the tumor cells, in a cell ratio of 1:1, and measuring IFN-γ production. Specifically, three hundred CTL clones were obtained from the parent line OK-CTLp by a limiting dilution culture. Eighty CTL clones among them had HLA-A2-restricted tumor-specific CTL activity and expressed the phenotype of CD3^+ CD4^− CD8^+ and TCR αβ^+.

[4] = CTL clone 0.5-1-D6, cDNA with HLA-A0207 cDNA in COS-7
[5] = CTL clone 0.5-1-D7, cDNA with HLA-A0207 cDNA in COS-7
[6] = CTL clone 0.5-1-H2, cDNA with HLA-A0207 cDNA in COS-7
[7] = CTL clone 0.5-1-H12, cDNA with HLA-A0207 cDNA in COS-7
[8] = CTL clone 0.5-2-A4, cDNA with HLA-A0207 cDNA in COS-7
[9] = CTL clone 1-2-D1, cDNA with HLA-A0207 cDNA in COS-7
[10] = CTL clone 1-2-D7, cDNA with HLA-A0207 cDNA in COS-7
[11] = CTL clone 1-2-D12, cDNA with HLA-A0207 cDNA in COS-7
[12] = CTL clone 2-1-F4, cDNA with HLA-A0207 cDNA in COS-7
[13] = CTL clone 2-1-H12, cDNA with HLA-A0207 cDNA in COS-7
[14] = CTL clone 2-2-B4, cDNA with HLA-A0207 cDNA in COS-7
[15] = CTL clone 2-2-H3, cDNA 100 ng/well with HLA-A0207 cDNA in COS-7
[16] = CTL clone 4-1-H8, cDNA with HLA-A0207 cDNA in COS-7
[17] = CTL clone 4-2-A11, cDNA with HLA-A0207 cDNA in COS-7
[18] = CTL clone 4-2-B3, cDNA with HLA-A0207 cDNA in COS-7

## ALVEFEDVL (Designed peptide having an ability to activate HLA-A2 restricted Cytotoxic T lymphocytes) [Peptide P6, Gene 2 (HNRPL) 140-148]
[1]; target COLO320 (HLA-A24/24)
  IFN-γ production from peripheral blood mononuclear cells in recognition of target cells: 40 pg/mL
[1]; target QG56 (HLA-A26/26)
  IFN-γ production from peripheral blood mononuclear cells in recognition of target cells: 0 pg/mL
[1]; target RERF-LC-MS (HLA-A11/11)
  IFN-γ production from peripheral blood mononuclear cells in recognition of target cells: 8 pg/mL
[2]
  Recognition of tumor cells by PBMC stimulated in vitro with peptide (IFN-γ production): produced IFN-γ in a significant amount
[2]; target CA9-22 (HLA-A0207/24)
  IFN-γ production from peripheral blood mononuclear cells in recognition of target cells: 863 pg/mL
[2]; target Panc-1 (HLA-A0201/11)
  IFN-γ production from peripheral blood mononuclear cells in recognition of target cells: 527 pg/mL
[2]; target SW620 (HLA-A0201/24)
  IFN-γ production from peripheral blood mononuclear cells in recognition of target cells: 344 pg/mL

## ASLDSDPWV (Designed peptide having an ability to activate HLA-A2 restricted Cytotoxic T lymphocytes) [Peptide P10, Gene 3 (WHSC2) 103-111]
[1]; target COLO320 (HLA-A24/24)
  IFN-γ production from peripheral blood mononuclear cells in recognition of target cells: 0 pg/mL
[1]; target QG56 (HLA-A26/26)
  IFN-γ production from peripheral blood mononuclear cells in recognition of target cells: 0 pg/mL
[1]; target RERF-LC-MS (HLA-A11/11)
  IFN-γ production from peripheral blood mononuclear cells in recognition of target cells: 0 pg/mL
[2]
  Recognition of tumor cells by PBMC stimulated in vitro with peptide (IFN-γ production): produced IFN-γ in a significant amount
[2]; target CA9-22 (HLA-A0207/24)
  IFN-γ production from peripheral blood mononuclear cells in recognition of target cells: 130 pg/mL
[2]; target Panc-1 (HLA-A0201/11)
  IFN-γ production from peripheral blood mononuclear cells in recognition of target cells: 163 pg/mL
[2]; target SW620 (HLA-A0201/24)
  IFN-γ production from peripheral blood mononuclear cells in recognition of target cells: 108 pg/mL

## Clone 5: cDNA clone from Panc-1, 2404 bp [AB044546], homology with ppMAPkkk
[3]; [4]
  IFN-γ production by CTL clone: 0
[3]; [5]
  IFN-γ production by CTL clone: 0
[3]; [6]
  IFN-γ production by CTL clone: 81
[3]; [7]
  IFN-γ production by CTL clone: 0
[3]; [8]
  IFN-γ production by CTL clone: 0
[3]; [9]
  IFN-γ production by CTL clone: 0
[3]; [10]
  IFN-γ production by CTL clone: 0
[3]; [11]
  IFN-γ production by CTL clone: 0
[3]; [12]
  IFN-γ production by CTL clone: >1000
[3]; [13]
  IFN-γ production by CTL clone: 0
[3]; [14]
  IFN-γ production by CTL clone: 0
[3]; [15]
  IFN-γ production by CTL clone: 0
[3]; [16]
  IFN-γ production by CTL clone: 0
[3]; [17]
  IFN-γ production by CTL clone: 0
[3]; [18]
  IFN-γ production by CTL clone: 0

## clone 1: cDNA clone from Panc-1, 1775 bp [AB044550], high homology with UBE2V
[3]; [4]
  IFN-γ production by CTL clone: 19
[3]; [5]
  IFN-γ production by CTL clone: 27
[3]; [6]
  IFN-γ production by CTL clone: 0
[3]; [7]
  IFN-γ production by CTL clone: 0
[3]; [8]
  IFN-γ production by CTL clone: 0
[3]; [9]
  IFN-γ production by CTL clone: 21
[3]; [10]
  IFN-γ production by CTL clone: 0
[3]; [11]
  IFN-γ production by CTL clone: 0
[3]; [12]
  IFN-γ production by CTL clone: 0
[3]; [13]
  IFN-γ production by CTL clone: 134
[3]; [14]
  IFN-γ production by CTL clone: 0
[3]; [15]
  IFN-γ production by CTL clone: 110
[3]; [16]
  IFN-γ production by CTL clone: 0
[3]; [17]
  IFN-γ production by CTL clone: 0
[3]; [18]
  IFN-γ production by CTL clone: 0

## clone 2: cDNA clone from Panc-1, 2097 bp [AB044547], high homology with HNRPL
[3]; [4]
  IFN-γ production by CTL clone: 0
[3]; [5]
  IFN-γ production by CTL clone: 34
[3]; [6]
  IFN-γ production by CTL clone: 0
[3]; [7]
  IFN-γ production by CTL clone: 0
[3]; [8]
  IFN-γ production by CTL clone: 0
[3]; [9]
  IFN-γ production by CTL clone: 0
[3]; [10]
  IFN-γ production by CTL clone: 200
[3]; [11]
  IFN-γ production by CTL clone: >1000
[3]; [12]
  IFN-γ production by CTL clone: 0
[3]; [13]
  IFN-γ production by CTL clone: 0
[3]; [14]
  IFN-γ production by CTL clone: 0
[3]; [15]
  IFN-γ production by CTL clone: 0
[3]; [16]
  IFN-γ production by CTL clone: 133
[3]; [17]
  IFN-γ production by CTL clone: 0
[3]; [18]
  IFN-γ production by CTL clone: 0

## clone 3: cDNA clone from Panc-1, 2243 bp [AB044549], high homology with WHSC2
[3]; [4]
  IFN-γ production by CTL clone: 0
[3]; [5]
  IFN-γ production by CTL clone: 0
[3]; [6]
  IFN-γ production by CTL clone: 0
[3]; [7]
  IFN-γ production by CTL clone: 0
[3]; [8]
  IFN-γ production by CTL clone: 0
[3]; [9]
  IFN-γ production by CTL clone: 22
[3]; [10]
  IFN-γ production by CTL clone: 0
[3]; [11]
  IFN-γ production by CTL clone: 0
[3]; [12]
  IFN-γ production by CTL clone: 0
[3]; [13]
  IFN-γ production by CTL clone: 0
[3]; [14]
  IFN-γ production by CTL clone: 0
[3]; [15]
  IFN-γ production by CTL clone: 0
[3]; [16]
  IFN-γ production by CTL clone: 0
[3]; [17]
  IFN-γ production by CTL clone: 100
[3]; [18]
  IFN-γ production by CTL clone: 0

## clone 6: cDNA clone from Panc-1, 6707 bp [AB044545], homology with 2-5 OAS3
[3]; [4]
  IFN-γ production by CTL clone: 13
[3]; [5]
  IFN-γ production by CTL clone: 110
[3]; [6]
  IFN-γ production by CTL clone: 0
[3]; [7]
  IFN-γ production by CTL clone: 0
[3]; [8]
  IFN-γ production by CTL clone: 113
[3]; [9]
  IFN-γ production by CTL clone: 61
[3]; [10]
  IFN-γ production by CTL clone: 0
[3]; [11]
  IFN-γ production by CTL clone: 0
[3]; [12]
  IFN-γ production by CTL clone: 0
[3]; [13]
  IFN-γ production by CTL clone: 0
[3]; [14]
  IFN-γ production by CTL clone: >1000
[3]; [15]
  IFN-γ production by CTL clone: 0
[3]; [16]
  IFN-γ production by CTL clone: 0
[3]; [17]
  IFN-γ production by CTL clone: 0
[3]; [18]
  IFN-γ production by CTL clone: 0

B1: clone 4: cDNA clone from Panc-1, 831 bp [AB044548], high homology with EIF4EBP1 (nucleic acid, listed as Homo sapiens)
DNA: GCGGGAGGGCAGCGAGAGGTTCGCGGGTGCAGCGCACAGGAGACCATGTCCGGGGGCAGCAGCTGCAGCCAGACCCCAAGCCGGGCCATCCCCGCCACTCGCCGGGTGGTGCTCGGCGACGGCGTGCAGCTCCCGCCCGGGGACTACAGCACGACCCCCGGCGGCACGCTCTTCAGCACCACCCCGGGAGGTACCAGGATCATCTATGACCGGAAATTCCTGATGGAGTGTCGGAACTCACCTGTGACCAAAACACCCCCAAGGGATCTGCCCACCATTCCGGGGGTCACCAGCCCTTCCAGTGATGAGCCCCCCATGGAAGCCAGCCAGAGCCACCTGCGCAATAGCCCAGAAGATAAGCGGGCGGGCGGTGAAGAGTCACAGTTTGAGATGGACATTTAAAGCACCAGCCATCGTGTGGAGCACTACCAAGGGGCCCCTCAGGGCCTTCCTGGGAGGAGTCCCACCAGCCAGGCCTTATGAAAGTGATCATACTGGGCAGGCGTTGGCGTGGGGTCGGACACCCCAGCCCTTTCTCCCTCACTCAGGGCACCTGCCCCCTCCTCTTCGTGAACACCAGCAGATACCTCCTTGTGCCTCCACTGATGCAGGAGCTGCCACCCCAAGGGGAGTGACCCCTGCCAGCACACCCTGCAGCCAAGGGCCAGGAAGTGGACAAGAACGAACCCTTCCTTCCGAATGATCAGCAGTTCCAGCCCCTCGCTGCTGGGGGCGCAACCACCCCTTCCTTAGGTTGATGTGCTTGGGAAAGCTCCCTCCCCCTCCTTCCCCAAGAGAGGAAATAAAAGCCACCTTCGCCCTAGGGCCAAG
modifications: polyA_site (831)..(831)
[3]; [4]
  IFN-γ production by CTL clone: 118
[3]; [5]
  IFN-γ production by CTL clone: 0
[3]; [6]
  IFN-γ production by CTL clone: 0
[3]; [7]
  IFN-γ production by CTL clone: >1000
[3]; [8]
  IFN-γ production by CTL clone: 0
[3]; [9]
  IFN-γ production by CTL clone: 44
[3]; [10]
  IFN-γ production by CTL clone: 0
[3]; [11]
  IFN-γ production by CTL clone: 0
[3]; [12]
  IFN-γ production by CTL clone: 0
[3]; [13]
  IFN-γ production by CTL clone: 0
[3]; [14]
  IFN-γ production by CTL clone: 0
[3]; [15]
  IFN-γ production by CTL clone: 0
[3]; [16]
  IFN-γ production by CTL clone: 0
[3]; [17]
  IFN-γ production by CTL clone: 0
[3]; [18]
  IFN-γ production by CTL clone: 95
